Measured values as given in patent US9826761B2, “Compositions and methods for mitigating dietary sulfur in animals” (SarTec Corporation, priority 2008, dated 2017).

Experiment: Titration of approx. 200 mM sulfide in fresh rumen fluid with 1 M metal chloride, silver/sulfide electrode
Design: species or system Holstein cows
Conditions: for mVolts (Negative Value): ~200 mM sulfide, fresh rumen fluid
Description: Fresh undiluted rumen fluid was obtained from rumen fistulated Holstein cows. 1.5 ml of a saturated solution of Na2S in water (approximately 2.7 M) was added to 18.5 ml of the rumen fluid. Sodium sulfide solutions were quantified by titration using a silver/sulfide electrode (Orion, Ion Plus Silver/Sulfide 9616BNWP) and a commercial lead standard (0.1 M Pb^2+, Orion 948206). The final concentration for sulfide ion in the rumen fluid was approximately 200 mM. This solution was then titrated with a 1 M solution of MnCl2 in water. The progress of the reaction was followed using the silver/sulfide electrode.
Fresh undiluted rumen fluid was obtained from rumen fistulated Holstein cows. 1.5 ml of saturated solution of Na2S in water (approximately 2.7 M) was added to 18.5 ml of the rumen fluid. The final concentration of sulfide ion in the rumen fluid was approximately 200 mM. This solution was then titrated with a 1 M solution of FeCl2 in water. The progress of the reaction was followed using the same silver/sulfide electrode set-up described above (Orion, Ion Plus Silver/Sulfide 9616BNWP).
Data taken from Examples 1 and 2 above were plotted together in order to gauge the relative efficacy of MnCl2 versus FeCl2 in removing sulfide ion from rumen fluid.

For `[Cl][Fe][Cl]` [FeCl2, iron (II) chloride], the “concentration of sulfide ion within the rumen fluid” value (addition of 1 M titrant to ~200 mM sulfide in fresh rumen fluid) was “effective to reduce the concentration of sulfide ion”, the “total sulfide ion concentrations in the rumen fluid, FeCl2 versus MnCl2” value (data of Examples 1 and 2 plotted together (FIG. 3)) was “lower total sulfide ion concentrations” and the “mVolts (Negative Value)” value (titrant volume 0.0 of 1M FeCl2) was 937.5 mVolts. For the same molecule, the “mVolts (Negative Value)” value (titrant volume 0.1 of 1M FeCl2) was 937.5 mVolts, the “mVolts (Negative Value)” value (titrant volume 0.4 of 1M FeCl2) was 935.1 mVolts and the “mVolts (Negative Value)” value (titrant volume 0.6 of 1M FeCl2) was 906.2 mVolts. For the same molecule, the “mVolts (Negative Value)” value (titrant volume 0.8 of 1M FeCl2) was 926.7 mVolts, the “mVolts (Negative Value)” value (titrant volume 1.0 of 1M FeCl2) was 916.9 mVolts and the “mVolts (Negative Value)” value (titrant volume 1.3 of 1M FeCl2) was 905.8 mVolts. For the same molecule, the “mVolts (Negative Value)” value (titrant volume 1.5 of 1M FeCl2) was 886.6 mVolts, the “mVolts (Negative Value)” value (titrant volume 1.7 of 1M FeCl2) was 869.4 mVolts and the “mVolts (Negative Value)” value (titrant volume 1.9 of 1M FeCl2) was 849.4 mVolts. The “mVolts (Negative Value)” value (titrant volume 2.1 of 1M FeCl2) was 833.9 mVolts, the “mVolts (Negative Value)” value (titrant volume 2.4 of 1M FeCl2) was 817.3 mVolts and the “mVolts (Negative Value)” value (titrant volume 2.6 of 1M FeCl2) was 816.8 mVolts. The “mVolts (Negative Value)” value (titrant volume 2.8 of 1M FeCl2) was 767.2 mVolts, the “mVolts (Negative Value)” value (titrant volume 3.0 of 1M FeCl2) was 735.5 mVolts and the “mVolts (Negative Value)” value (titrant volume 3.5 of 1M FeCl2) was 634.0 mVolts. The “mVolts (Negative Value)” value (titrant volume 3.7 of 1M FeCl2) was 622.8 mVolts, the “mVolts (Negative Value)” value (titrant volume 3.9 of 1M FeCl2) was 616.3 mVolts and the “mVolts (Negative Value)” value (titrant volume 4.1 of 1M FeCl2) was 610.8 mVolts. The “mVolts (Negative Value)” value (titrant volume 4.3 of 1M FeCl2) was 607.2 mVolts, the “mVolts (Negative Value)” value (titrant volume 4.5 of 1M FeCl2) was 603.3 mVolts and the “mVolts (Negative Value)” value (titrant volume 4.8 of 1M FeCl2) was 600.0 mVolts. For the same molecule, the “mVolts (Negative Value)” value (titrant volume 5.0 of 1M FeCl2) was 595.7 mVolts, the “mVolts (Negative Value)” value (titrant volume 5.5 of 1M FeCl2) was 590.0 mVolts and the “mVolts (Negative Value)” value (titrant volume 6.0 of 1M FeCl2) was 586.5 mVolts.
